Assay results published in paper PMC5673977, “Transport Deficiency Is the Molecular Basis of Candida albicans Resistance to Antifungal Oligopeptides” (Frontiers in Microbiology, 2017).
Where a SMILES comes first, the peptide text is derived from it.

Columns and labels:
Assay in all cases: Initial peptide uptake rate
Type in all cases: cell-based, Candida albicans
[1] = tested on: C. albicans opt1–opt5Δ ptr2Δ ptr22Δ; conditions: 50 mM potassium phosphate buffer (pH 5.0 or 6.5) + 1% glucose, 30°C, 100 μM peptide, TNBS A420, slope 0- to 10-min
Description: (§1) Yeast cells grown exponentially in the YNB-SG medium were harvested by centrifugation (3000 ×g, 5 min), washed with 50 mM potassium phosphate buffer (pH 5.0 or 6.5), and suspended in the same buffer containing 1% glucose, to a final cell density corresponding to A660 ≅ 1.0. The cell suspension was incubated at 30°C. After 10 min, an oligopeptide solution was added, to give a final concentration of 100 μM. At that moment and at 5 min intervals thereafter, 2 mL samples of the cell suspension were withdrawn, immediately filtered through the Whatman GF/A filters and the filtrates were used to determine the residual peptide concentration. Then, the 1 mL portions of the filtrates were taken and combined with 1.25 mL aliquots of a solution containing 4% Na2B4O7 × 10 H2O and 0.8 mg mL^-1 of 2,4,6-trinitrobenzenesulfonate. The reaction was carried out at 37°C for 30 min. The A420 values were measured and the peptide concentration was read from the appropriate standard curve. Data were plotted as nanomoles of an oligopeptide, taken up by 1 mg (dry weight) of cells versus time. The initial uptake velocities were determined from the slopes of the linear part of the curves, in the 0- to 10-min region.

C. albicans opt5Δ = conditions: 50 mM potassium phosphate buffer (pH 5.0 or 6.5) + 1% glucose, 30°C, 100 μM peptide, TNBS A420, slope 0- to 10-min
Description: as §1

C. albicans opt2Δ opt3Δ = conditions: 50 mM potassium phosphate buffer (pH 5.0 or 6.5) + 1% glucose, 30°C, 100 μM peptide, TNBS A420, slope 0- to 10-min
Description: as §1

C. albicans opt4Δ = conditions: 50 mM potassium phosphate buffer (pH 5.0 or 6.5) + 1% glucose, 30°C, 100 μM peptide, TNBS A420, slope 0- to 10-min
Description: as §1

C. albicans opt1Δ = conditions: 50 mM potassium phosphate buffer (pH 5.0 or 6.5) + 1% glucose, 30°C, 100 μM peptide, TNBS A420, slope 0- to 10-min
Description: as §1

C. albicans SC5314 = conditions: SC 5314; cells grown in YNB-SG; 50 mM potassium phosphate buffer (pH 5.0 or 6.5) + 1% glucose, 30°C, 100 μM peptide, residual peptide by TNBS A420, slope 0- to 10-min
Description: as §1

C. albicans ptr2Δ ptr22Δ = conditions: 50 mM potassium phosphate buffer (pH 5.0 or 6.5) + 1% glucose, 30°C, 100 μM peptide, TNBS A420, slope 0- to 10-min
Description: as §1

C. albicans opt1–opt5Δ = conditions: 50 mM potassium phosphate buffer (pH 5.0 or 6.5) + 1% glucose, 30°C, 100 μM peptide, TNBS A420, slope 0- to 10-min
Description: as §1

SMILES	Uptake rate ± SD [1]	Uptake rate ± SD (C. albicans opt5Δ)	Uptake rate ± SD (C. albicans opt2Δ opt3Δ)	Uptake rate ± SD (C. albicans opt4Δ)	Uptake rate ± SD (C. albicans opt1Δ)	Uptake rate ± SD (C. albicans SC5314)	Uptake rate ± SD (C. albicans ptr2Δ ptr22Δ)	Uptake rate ± SD (C. albicans opt1–opt5Δ)
CSCC[C@H](NC(=O)[C@@H](NC(=O)[C@@H]1CCCN1C(=O)[C@H](CC(C)C)NC(=O)[C@@H](N)CCCCN)C(C)C)C(=O)O [Peptide P5, Lys-Leu-Pro-Val-Met, reference compound] (H-KLPVM-OH)	0.15 ± 0.04 nmol min^-1 (mg dry weight)^-1	1.82 ± 0.11 nmol min^-1 (mg dry weight)^-1	0.52 ± 0.08 nmol min^-1 (mg dry weight)^-1	1.95 ± 0.13 nmol min^-1 (mg dry weight)^-1	2.01 ± 0.16 nmol min^-1 (mg dry weight)^-1	2.66 ± 0.19 nmol min^-1 (mg dry weight)^-1	2.56 ± 0.18 nmol min^-1 (mg dry weight)^-1	0.39 ± 0.07 nmol min^-1 (mg dry weight)^-1
N=C(N)NCCC[C@H](N)C(=O)N[C@@H](CCCCN)C(=O)N[C@@H](CCCCN)C(=O)N[C@@H](Cc1c[nH]c2ccccc12)C(=O)N[C@@H](Cc1ccccc1)C(=O)N[C@@H](Cc1c[nH]c2ccccc12)C(=O)O [Peptide P6, Arg-Lys-Lys-Trp-Phe-Trp, reference compound] (H-RKKWFW-OH)	0.12 ± 0.03 nmol min^-1 (mg dry weight)^-1	1.99 ± 0.10 nmol min^-1 (mg dry weight)^-1	0.40 ± 0.09 nmol min^-1 (mg dry weight)^-1	2.11 ± 0.16 nmol min^-1 (mg dry weight)^-1	1.85 ± 0.15 nmol min^-1 (mg dry weight)^-1	2.22 ± 0.11 nmol min^-1 (mg dry weight)^-1	2.46 ± 0.19 nmol min^-1 (mg dry weight)^-1	0.22 ± 0.07 nmol min^-1 (mg dry weight)^-1
